Results: patent EP2818471A1, “Nitrogen bicyclic compounds as inhibitors for Scyl1 and Grk5” (Max-Planck-Gesellschaft zur Förderung der Wissenschaften …, priority 2013, dated 2014)

System: beta-TC6 cells
Assay: Insulin HTRF assay, relative activity Ar normalized to sunitinib
Format: cell-based
Settings: Mus musculus, normalized to positive control sunitinib (5 µM = 100%), Table 10
From the text: For further screening of compounds derived from compounds described above for their ability to regulate insulin release an insulin HTRF® (Homogeneous Time-Resolved Fluorescence; Cisbio International, France) was used. This assay is based on two antibodies against insulin binding to different epitopes of insulin. One of these antibodies is coupled to Europium (Ab-Eu-Cryptate) and the other one to the fluorophore XL665 (Ab-XL665). Is insulin secreted into the supernatant of cell culture both antibodies can bind to insulin and come therefore into close proximity which allows upon excitation that energy transfer between (FRET) the long-life fluorescent donor Europium (cryptate) and the acceptors XL665. FRET increases proportionally with insulin concentration.
The automated assay protocol is as follows: • On day 1 15k beta-TC6 cells per well were seeded for 24 or 48 h in 50 µl complete medium. On day 2 or respective on day 3 the medium is removed and cells are washed with 60 µl 1xPBS and 20 µl induction buffer is added using BioTek washer. Subsequently, 10 µl Sunitininb (5 µM f.c.) or the test compound in induction buffer; 0.5% f.c. DMSO (CyBi-well) is transferred to the cells. The cells are then incubated at 37°C for 2, 3, 4h.
The HTRF assay is carried out using Greiner 384-well 784075 assay plates. First 10 µl supernatant is transferred from the cell plates in HTRF plates (CyBi-well). 10 µl of 0, 1, 2, and 4 ng/ml Insulin standard controls in assay medium is used as a control. To each well 10 µl of combined 1:25 Ab-XL665 (Acc) and 1:20 Ab-Eu-Cryptate (WellMate) are added and incubated for 120 min at RT in the dark. Finally HTRF is measured on ViewLux ultra high throughput microplate imager (PerkinElmer).
The evaluation software DataFactoty derives relative activities Ar according to the following equation: Ar = (V-R(0%control))/(R(100%control) -R(0%control)) × 100 [formula] […]
The activity of the compounds was classified according to their Ar (relative activity) into the following ranges: Ar ≥ 100% + + + +; 50% ≤ Ar < 100% + + +; 20% ≤ Ar < 50% + +; 10% < Ar < 20% + [formula] Table 10. Ar (relative activity) values of inventive compounds

Row | SMILES | Emax
1 | COc1ccc(-c2cnc3cnc(-c4ccc(N)nc4)cn23)cc1 [compound 363, 5-[3-(4-methoxyphenyl)imidazo[1,2-a]pyrazin-6-yl]pyridin-2-amine] | 20 to 50%
2 | Cn1cc(-c2cnc3cnc(-c4ccncc4)cn23)cn1 [compound 438, 3-(1-methylpyrazol-4-yl)-6-(4-pyridyl)imidazo[1,2-a]pyrazine] | 20 to 50%
3 | CC(=O)c1cccc(-c2cn3c(NC(=O)CC4CC4)cnc3cn2)c1 [compound 274, N-[6-(3-acetylphenyl)imidazo[1,2-a]pyrazin-3-yl]-2-cyclopropyl-acetamide] | 20 to 50%
4 | Cc1ccc(CNc2ccc3ncc(-c4ccc(O)cc4)n3n2)c(C)c1 [compound 52, 4-[6-[(2,4-dimethylphenyl)methylamino]imidazo[1,2-b]pyridazin-3-yl]phenol] | 20 to 50%
5 | COc1ccc(-c2cnc3ccc(N[C@H](CO)C(C)C)nn23)c(OC)c1 [compound 46, (2S)-2-[[3-(2,4-dimethoxyphenyl)imidazo[1,2-b]pyridazin-6-yl]amino]-3-methyl-butan-1-ol] | 20 to 50%
6 | N#Cc1ccc(-c2cnc3cnc(-c4ccc(Cl)cc4)cn23)cc1 [compound 337, 4-[6-(4-chlorophenyl)imidazo[1,2-a]pyrazin-3-yl]benzonitrile] | 50 to 100%
7 | c1ccc(Oc2ccccc2-c2cn3c(-c4ccncc4)cnc3cn2)cc1 [compound 311, 6-(2-phenoxyphenyl)-3-(4-pyridyl)imidazo[1,2-a]pyrazine] | 20 to 50%
8 | Oc1cccc(-c2cnc3ccc(-c4cccc5ncccc45)nn23)c1 [compound 128, 3-[6-(5-quinolyl)imidazo[1,2-b]pyridazin-3-yl]phenol] | 10 to 20%
9 | CN(C)CCCNC(=O)c1ccc(-c2ccc3nnc(-c4cccc(C(F)(F)F)c4)n3c2)cc1 [compound 211, N-[3-(dimethylamino)propyl]-4-[3-[3-(trifluoromethyl)phenyl]-[1,2,4]triazolo[4,3-a]pyridin-6-yl]benzamide] | 20 to 50%
10 | c1csc(-c2cn3c(-c4ccsc4)cnc3cn2)c1 [compound 322, 6-(2-thienyl)-3-(3-thienyl)imidazo[1,2-a]pyrazine] | 50 to 100%
11 | c1ccc(-c2nnc3ccc(-c4ccc5c(c4)OCO5)cn23)cc1 [compound 164, 6-(1,3-benzodioxol-5-yl)-3-phenyl-[1,2,4]triazolo[4,3-a]pyridine] | 50 to 100%
12 | CN(C)CCCOc1ccc(-c2nnc3ccc(C#Cc4ccc(C(=O)N(C)C)cc4)cn23)cc1 [compound 238, 4-[2-[3-[4-[3-(dimethylamino)propoxy]phenyl]-[1,2,4]triazolo[4,3-a]pyridin-6-yl]ethynyl]-N,N-dimethyl-benzamide] | 20 to 50%
13 | COc1cccc(C#Cc2ccc3nnc(-c4cccc(OC(F)(F)F)c4)n3c2)c1 [compound 194, 6-[2-(3-methoxyphenyl)ethynyl]-3-[3-(trifluoromethoxy)phenyl]-[1,2,4]triazolo[4,3-a]pyridine] | 20 to 50%
14 | CC(=O)Nc1ccc(-c2cnc3ccc(-c4ccc5c(c4)OCO5)nn23)cc1 [compound 148, N-[4-[6-(1,3-benzodioxol-5-yl)imidazo[1,2-b]pyridazin-3-yl]phenyl]acetamide] | ≥ 100%
15 | OCc1ccc(-c2ccc3ncc(-c4cccnc4)n3n2)cc1 [compound 106, [4-[3-(3-pyridyl)imidazo[1,2-b]pyridazin-6-yl]phenyl]methanol] | 20 to 50%
16 | N#Cc1ccc(-c2cnc3cnc(-c4cccs4)cn23)cc1 [compound 339, 4-[6-(2-thienyl)imidazo[1,2-a]pyrazin-3-yl]benzonitrile] | 20 to 50%
17 | CN(C)c1ccccc1-c1cn2c(-c3cccs3)cnc2cn1 [compound 413, N,N-dimethyl-2-[3-(2-thienyl)imidazo[1,2-a]pyrazin-6-yl]aniline] | 20 to 50%

Row | SMILES | Emax
18 | COc1ccc(-c2cn3c(-c4cccc(O)c4)cnc3cn2)cn1 [compound 369, 3-[6-(6-methoxy-3-pyridyl)imidazo[1,2-a]pyrazin-3-yl]phenol] | 20 to 50%
19 | c1ccc(-c2cn3c(-c4ccc5c(c4)OCO5)cnc3cn2)cc1 [compound 300, 3-(1,3-benzodioxol-5-yl)-6-phenyl-imidazo[1,2-a]pyrazine] | 50 to 100%
20 | COc1ccc(-c2nnc3ccc(C#Cc4ccncc4)cn23)cc1OC [compound 190, 3-(3,4-dimethoxyphenyl)-6-[2-(4-pyridyl)ethynyl]-[1,2,4]triazolo[4,3-a]pyridine] | 50 to 100%
21 | c1ccc(-c2cnc3cnc(-c4cccs4)cn23)cc1 [compound 298, 3-phenyl-6-(2-thienyl)imidazo[1,2-a]pyrazine] | 20 to 50%
22 | CN(C)CCNC(=O)c1cccc(-c2ccc3nnc(-c4ccc5nccnc5c4)n3c2)c1 [compound 242, N-(2-dimethylaminoethyl)-3-(3-quinoxalin-6-yl-[1,2,4]triazolo[4,3-a]pyridin-6-yl)benzamide] | ≥ 100%
23 | Nc1cccc(-c2ccc3ncc(-c4cccc(Cl)c4)n3n2)c1 [compound 123, 3-[3-(3-chlorophenyl)imidazo[1,2-b]pyridazin-6-yl]an iline] | 20 to 50%
24 | Cc1ccccc1-c1cnc2cnc(-c3cccc(F)c3)cn12 [compound 404, 6-(3-fluorophenyl)-3-(o-tolyl)imidazo[1,2-a]pyrazine] | 10 to 20%
25 | CC(C(=O)Nc1cnc2cnc(-c3cccc([N+](=O)[O-])c3)cn12)c1ccccc1 (stereo not shown) [compound 271, N-[6-(3-nitrophenyl)imidazo[1,2-a]pyrazin-3-yl]-2-phenyl-propanamide] | 20 to 50%
26 | c1csc(-c2cnc3cnc(-c4cc5ccccc5s4)cn23)c1 [compound 416, 6-(benzothiophen-2-yl)-3-(2-thienyl)imidazo[1,2-a]pyrazine] | 50 to 100%
27 | CN(C)CCCNC(=O)c1ccc(-c2cn3c(-c4ccc(N(C)C)cc4)cnc3cn2)cc1 [compound 285, 4-[3-(4-dimethylaminophenyl)imidazo[1,2-a]pyrazin-6-yl]-N-[3-(dimethylamino)propyl]benzamide] | 50 to 100%
28 | c1coc(-c2cn3c(-c4ccsc4)cnc3cn2)c1 [compound 319, 6-(2-furyl)-3-(3-thienyl)imidazo[1,2-a]pyrazine] | 20 to 50%
29 | CCCC/C=C/c1cn2c(NC(=O)Cc3cccc(OC)c3)cnc2cn1 [compound 253, N-[6-[(E)-hex-1-enyl]imidazo[1,2-a]pyrazin-3-yl]-2-(3-methoxyphenyl)acetamide] | 10 to 20%
30 | CC(C)Oc1cccc(-c2cn3c(-c4cccc(CO)c4)cnc3cn2)c1 [compound 380, [3-[6-(3-isopropoxyphenyl)imidazo[1,2-a]pyrazin-3-yl]phenyl]methanol] | 20 to 50%
31 | Nc1ccc(-c2cn3c(NC(=O)c4ccccc4)cnc3cn2)cc1 [compound 269, N-[6-(4-aminophenyl)imidazo[1,2-a]pyrazin-3-yl]benzamide] | 20 to 50%
32 | CN(C)C(=O)c1cccc(-c2cn3c(-c4ccc(N(C)C)cc4)cnc3cn2)c1 [compound 293, 3-[3-(4-dimethylaminophenyl)imidazo[1,2-a]pyrazin-6-yl]-N,N-dimethyl-benzamide] | 20 to 50%
33 | Oc1cccc(-c2cnc3cnc(-c4cccs4)cn23)c1 [compound 370, 3-[6-(2-thienyl)imidazo[1,2-a]pyrazin-3-yl]phenol] | 20 to 50%
34 | COc1ccc(-c2nnc3ccc(-c4cccs4)cn23)cc1OC [compound 191, 3-(3,4-dimethoxyphenyl)-6-(2-thienyl)-[1,2,4]triazolo[4,3-a]pyridine] | 50 to 100%
